According to patent publication US4683245A, “Laevorotatory antipode of moprolol as an antihypertensive” (SIMES S.p.A. Societa Italiana Medicinali e Sintetici, priority 1979, dated 1987):
Where two headings read alike, the source gives them in different places.

Tests used:
[1] = tested on: spontaneously beating right atrium preparations; assay: chronotropic effect on spontaneously beating right atria from reserpinized guinea-pigs; parameters: species or system guinea-pig
Method: Experiments were carried out on spontaneously beating right atrium preparations taken from the hearts of guinea-pigs of both sexes, weighing 300 to 400 g.
Twenty hrs before sacrifice the animals were injected intramuscularly with reserpine dissolved in 20% ascorbic acid in 2 doses of 2 mg/kg each at 24 hrs distance. An equal number of animals received the reserpine solvent only and were kept as controls.
The preparations were suspended in 10 ml vessels containing Krebs-Henseleitsolution aerated with […] and maintained at a temperature of 35° C.
The right atria were fixed to the vessel base by one end and connected to a transducer of a semiisometric microdynanometer (Basile) by the other end.
Heart rate was recorded directly from the tracing.
All the preparations were subjected to a reset traction of 0.6-0.8 g and allowed to stabilize for 1 hr before starting experiments.
The substances were placed in the vessel in cumulative concentrations. Each concentration was increased by three times as compared with the previous one and a 10 min. interspace was left between concentrations.
The control preparations were made by replacing in the vessel the only solvent (H2 O) in the same volumes as for the drug solutions. The effect excerted by the drug and the solvent on atrial rate was evaluated as per-cent variation as compared with baseline values. The significance of the differences between treated and control animals was assessed by Dunnett's test.
***In order to be able to compare the effect of combined doses of the
enantiomers with those of equal doses of the single enantiomers racemic
moprolol was used in concentration double with respect to the single

[2] = tested on: adrenergic beta-receptors; assay: inhibition of hemodynamic effects of isoproterenol (beta-receptor stimulation) in anesthetized dogs; type: in vivo, dog; settings: isoproterenol 0.25 μg/Kg/minute i.v.; for beta-blocking activity (in words): anesthetized dogs, duodenal administration
Source text: In order better to clarify the advantages connected with the use of pharmaceutical compositions according to the present invention, the attached drawings include three diagrams relating to certain experiments conducted in anesthetized dogs. These diagrams concern the inhibition by recemic moprolol, it laevorotatory optical isomer and its dextro-rotatory optical isomer, of certain homodynamic effects due to stimulation of the adrenergic beta-receptors following on intravenous infusion of isoproterenol at a dose of 0.25 μg/Kg/minute.
The curves therein reported refer to the means of the results of three tests for each substance.

mouse = assay: Lethal Dose50 (LD50) in the mouse; type: in vivo
Source text: (§1) In this regard the following Table I reports the LD50 of the single isomers and of the racemic product.

[3] = tested on: adrenergic beta-receptors; assay: Median effective Dose (ED50) in the dog; type: in vivo
Source text: The data given in Table I evidence similar toxicity of the three different compounds.
In this regard the following Table II gives the respective data for the three compounds (±); (-); (+).

[4] = Lethal Dose50 (LD50) in the mouse; type: in vivo; settings: mouse, in vivo, in the mouse
Source text: as §1

[5] = listed as laevorotatory moprolol
[6] = reserpinized guinea-pig right atrium
[7] = Cavia porcellus, read-out: Chronotropic effect (% variation)

CC(C)NCC(O)COc1cccc2ccccc12 (single isomer, unassigned) [Moprolol 1-propanolol]
atr. block (preparations blocked / total) ([1]; 1 × 10^-4 M): 4/4
Chronotropic effect (% variation) ([1]; 1 × 10^-4 M, vs baseline, mean ± S.E.): atr. block
activation at 10 µM ([1]; Cavia porcellus, 1 × 10^-5 M, vs baseline, mean ± S.E., read-out: Chronotropic effect (% variation)): -21.5%
activation at 1 µM ([1]; Cavia porcellus, 1 × 10^-6 M, vs baseline, mean ± S.E., read-out: Chronotropic effect (% variation)): -5.7%
activation at 0.1 µM ([1]; Cavia porcellus, 1 × 10^-7 M, vs baseline, mean ± S.E., read-out: Chronotropic effect (% variation)): -2%
activation at 0.01 µM ([1]; Cavia porcellus, 1 × 10^-8 M, vs baseline, mean ± S.E., read-out: Chronotropic effect (% variation)): -0.5%
activation at 30 µM ([1]; Cavia porcellus, 3 × 10^-5 M, vs baseline, mean ± S.E., read-out: Chronotropic effect (% variation)): -37%
activation at 3 µM ([1]; Cavia porcellus, 3 × 10^-6 M, vs baseline, mean ± S.E., read-out: Chronotropic effect (% variation)): -11.2%
activation at 0.3 µM ([1]; Cavia porcellus, 3 × 10^-7 M, vs baseline, mean ± S.E., read-out: Chronotropic effect (% variation)): -3.5%
activation at 0.03 µM ([1]; Cavia porcellus, 3 × 10^-8 M, vs baseline, mean ± S.E., read-out: Chronotropic effect (% variation)): -0.75%
minimal effective concentration ([1]; Cavia porcellus, reserpinized guinea-pig right atrium, read-out: concentration from which depressant effect on atrial rate starts): ≥ 1 µM
effect on atrial rate (in words) ([1]; reserpinized guinea-pig right atrium, listed as Laevorotatory isomer of propanolol): no stimulant effect but a depressant effect
effect on atrial rate (in words) ([1]; reserpinized guinea-pig right atrium, listed as laevorotatory isomer of propanolol): more marked than that evoked by laevorotatory isomer, dextro-rotatory isomer and racemic moprolol

COc1ccccc1OCC(O)CNC(C)C (single isomer, unassigned) [Moprolol (+)]
beta-blocking activity (in words) ([2]; listed as dextro-rotatory isomer): practically nil
beta-blocking activity (in words) ([2]; listed as dextrorotatory optical isomer): almost complete lack of beta-blocking activity
toxicity (in words) (mouse; LD50, mouse): same toxicity as the laevorotatory isomer and the racemic form
Lethal Dose50 (LD50) (mouse; in the mouse): 720 mg/kg weight animal
Median effective Dose (ED50) [3]: nil
activity at effective dose (in words) [3]: without any activity whatsoever
Chronotropic effect (% variation) ([1]; 1 × 10^-4 M, vs baseline, mean ± S.E., listed as d-moprolol): -37.5%
Chronotropic effect (% variation) ([1]; 1 × 10^-5 M, vs baseline, mean ± S.E., listed as d-moprolol): -7.25%
Chronotropic effect (% variation) ([1]; 1 × 10^-6 M, vs baseline, mean ± S.E., listed as d-moprolol): -2%
Chronotropic effect (% variation) ([1]; 1 × 10^-7 M, vs baseline, mean ± S.E., listed as d-moprolol): -2.7%
Chronotropic effect (% variation) ([1]; 1 × 10^-8 M, vs baseline, mean ± S.E., listed as d-moprolol): -1.25%
Chronotropic effect (% variation) ([1]; 3 × 10^-5 M, vs baseline, mean ± S.E., listed as d-moprolol): -14.7%
Chronotropic effect (% variation) ([1]; 3 × 10^-6 M, vs baseline, mean ± S.E., listed as d-moprolol): -6%
Chronotropic effect (% variation) ([1]; 3 × 10^-7 M, vs baseline, mean ± S.E., listed as d-moprolol): -2.7%
Chronotropic effect (% variation) ([1]; 3 × 10^-8 M, vs baseline, mean ± S.E., listed as d-moprolol): -4%
effect on atrial rate (in words) ([1]; reserpinized guinea-pig right atrium, listed as Dextro-rotatory isomer of moprolol): no stimulant effect in a range of concentrations which have proved to be active for laevorotatory isomer of moprolol. On the contrary, they give rise to a depressant effect

COc1ccccc1OCC(O)CNC(C)C (single isomer, unassigned) [Moprolol (-)]
significance (P) of correlation coefficient of dose-dependent inhibition ([2]; 0.25, 0.0625 and 0.125 mg/kg): < 0.01
beta-blocking activity (in words) ([2]; listed as laevoratatory isomer of moprolol): exactly double that of racemic moprolol
beta-blocking activity (in words) [2, 5]: particularly evident for the laevorotatory form in a dose-dependent manner
LD50 [4]: 605 mg/kg
Median effective Dose (ED50) [3]: 0.0781 mg/kg weight animal
activity relative to the racemic form (times more active) ([3]; effective dose): 2 times
Median effective Dose (ED50) [3, 5]: 0.0781 mg/kg weight animal
cardiac action (in words) [1]: cardiac stimulant action
Chronotropic effect (% variation) ([1]; 1 × 10^-4 M, vs baseline, mean ± S.E., listed as 1-moprolol): -10.8%
Chronotropic effect (% variation) ([1]; 1 × 10^-5 M, vs baseline, mean ± S.E., listed as 1-moprolol): +4%
Chronotropic effect (% variation) ([1]; 1 × 10^-6 M, vs baseline, mean ± S.E., listed as 1-moprolol): +8.8%
Chronotropic effect (% variation) ([1]; 1 × 10^-7 M, vs baseline, mean ± S.E., listed as 1-moprolol): +10.4%
Chronotropic effect (% variation) ([1]; 1 × 10^-8 M, vs baseline, mean ± S.E., listed as 1-moprolol): +8.2%
Chronotropic effect (% variation) ([1]; 3 × 10^-5 M, vs baseline, mean ± S.E., listed as 1-moprolol): +0.2%
Chronotropic effect (% variation) ([1]; 3 × 10^-6 M, vs baseline, mean ± S.E., listed as 1-moprolol): +7.8%
Chronotropic effect (% variation) ([1]; 3 × 10^-7 M, vs baseline, mean ± S.E., listed as 1-moprolol): +10.4%
Chronotropic effect (% variation) ([1]; 3 × 10^-8 M, vs baseline, mean ± S.E., listed as 1-moprolol): +11.4%
concentration range of stimulant effect on atrial rate [1, 6]: 10 to 1000 nM
effect on atrial rate (in words) ([1]; reserpinized guinea-pig right atrium, listed as Laevorotatory isomer of moprolol): causes a stimulant effect on atrial rate

COc1ccccc1OCC(O)CNC(C)C (racemic) [Moprolol (±), 1-(o-methoxy-phenoxy)-3-isopropyl-amino-propane-2-ol]
LD50 [4]: 712 mg/kg
Median effective Dose (ED50) [3]: 0.150 mg/kg weight animal
cardiac action (in words) [1]: cardiac depressant action
activation at 0.01 µM ([1]; Cavia porcellus, column 1 × 10^-8, racemate used in double concentration vs single enantiomers, read-out: Chronotropic effect (% variation)): 0%

Cl.NCCc1ccc(O)cc1 [Tyramine HCl]
activation at 0.1 µM [1, 7]: 0%
activation at 0.3 µM [1, 7]: 0%
activation at 1 µM [1, 7]: 0%
activation at 3 µM [1, 7]: 0%
activation at 10 µM [1, 7]: -1 ± 1%
activation at 30 µM [1, 7]: -3%
activation at 100 µM [1, 7]: -3%
effect on atrial rate (in words) [1, 6]: devoid of positive chronotropic effect
